Test results published in ChEMBL document CHEMBL3137667, “[Drug-induced liver injury; fourteenth updated edition of the bibliographic database of liver injuries and related drugs]” (Gastroenterol Clin Biol, 2004).

What was measured:
[1] = Highest frequency of moderate liver toxicity observed during clinical trials, expressed as a percentage. [column '% BIOL' in source]; settings: human
[2] = Highest frequency of acute liver toxicity observed during clinical trials, expressed as a percentage. [column '% AIGUE' in source]; settings: human
[3] = Times to onset, minimal and maximal, observed in the indexed observations. [column 'DELAI' in source]; settings: human
[4] = Proposed mechanism(s) of liver damage. [column 'MEC' in source]; settings: human
[5] = human, serum
[6] = human, serum; remark: listed apart in the source
[7] = human
[8] = human; remark: listed apart in the source
[9] = human; remark: listed apart in the source
[10] = human, serum, 4383 h
[11] = human; remark: listed apart in the source
[12] = human; remark: listed apart in the source
[13] = human; remark: listed apart in the source
[14] = human; remark: listed apart in the source
[15] = human; remark: listed apart in the source
[16] = human; remark: listed apart in the source
[17] = human; remark: listed apart in the source
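For Hepatotoxicity (association with vascular disease) in this document: count of indexed literature references reporting vascular liver injury in humans, e.g. peliosis hepatitis, hepatic veno-occlusive disease or Budd-Chiari syndrome.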
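For Hepatotoxicity (benign tumour) in this document: value is a count of indexed literature references citing a benign tumour confirmed by histopathology.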
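For Hepatotoxicity (choleostasis) in this document: human cholestatic liver injury, shown by histopathology or by peak ALT or AST elevation over alkaline phosphatase ratio below 2, value counts indexed literature reports.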
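For Hepatotoxicity (chronic liver disease) in this document: chronic liver injury confirmed by histopathology or persistently raised serum aminotransferase activity beyond 6 months, value given as the count of indexed literature references.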
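For Hepatotoxicity (cirrhosis) in this document: value is a count of indexed literature references reporting cirrhosis confirmed by histopathology.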
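For Hepatotoxicity (cytolytic) in this document: human cytolytic liver injury, shown by histopathology or by a ratio above 5 of peak ALT or AST elevation to alkaline phosphatase elevation, value counts indexed references.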
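For Hepatotoxicity (granulomatous hepatitis) in this document: value is a count of indexed literature references reporting granulomatous liver disease confirmed by histopathology.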
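For Hepatotoxicity (malignant tumour) in this document: malignant tumour confirmed by histopathology, value gives the count of indexed literature references reporting it.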
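For Hepatotoxicity (severe hepatitis) in this document: human clinical data: severe hepatitis, meaning potentially life-threatening liver failure or clinically observed cases, the value counts how many indexed literature references report it.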
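For Hepatotoxicity (steatosis) in this document: steatosis confirmed by histopathology, value is the count of indexed references.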

Row | Structure (SMILES) | Hepatotoxicity (time to onset) [3] | Hepatotoxicity (moderate) [5] | Hepatotoxicity (acute) [6] | Hepatotoxicity (chronic liver disease) [10] | Hepatotoxicity (cirrhosis) [11] | Hepatotoxicity (association with vascular disease) [13] | Hepatotoxicity (steatosis) [14] | Hepatotoxicity (malignant tumour) [15] | Hepatotoxicity (benign tumour) [16] | Hepatotoxicity (animal toxicity known) [17] | Hepatotoxicity (moderate) [1] | Hepatotoxicity (acute) [2] | Hepatotoxicity (mechanism) [4] | Hepatotoxicity (cytolytic) [7] | Hepatotoxicity (choleostasis) [8] | Hepatotoxicity (severe hepatitis) [9] | Hepatotoxicity (granulomatous hepatitis) [12] | further results
1 | Cc1ccc(C(=O)c2cc(O)c(O)c([N+](=O)[O-])c2)cc1 [TOLCAPONE] | 1 month - 6 months | 6 | 6 | 0 | 0 | 0 | 0 | 0 | 0 | yes | – | – | – | – | – | – | – | Hepatotoxicity (moderate) ([1]; Liver): 14.3%; Hepatotoxicity (acute) ([2]; Liver): 0.7%; Hepatotoxicity (mechanism) ([4]; Liver): Mitochondrial toxicity; Hepatotoxicity (cytolytic) ([7]; Liver): 6; Hepatotoxicity (choleostasis) ([8]; Liver): 0; Hepatotoxicity (severe hepatitis) ([9]; Liver): 5; Hepatotoxicity (granulomatous hepatitis) ([12]; Liver): 0
2 | CCOc1ccc(NC(C)=O)cc1 [PHENACETIN] | 2 days - 2 years | 2 | 4 | 0 | 0 | 0 | 1 | 0 | 0 | yes | 0% | 0% | Dose-dependant | 0 | 0 | 0 | 2 | –
3 | O=NN(CCCl)C(=O)NCCCl [CARMUSTINE] | 1 week - 6 weeks | 8 | 6 | 0 | 0 | 10 | 0 | 0 | 0 | yes | 26% | 23% | Dose-dependant | 3 | 1 | 2 | 0 | –
4 | CO[C@H](C(=O)[C@@H](O)[C@@H](C)O)[C@@H]1Cc2cc3cc(O[C@H]4C[C@@H](O[C@H]5C[C@@H](O)[C@H](O)[C@@H](C)O5)[C@H](O)[C@@H](C)O4)c(C)c(O)c3c(O)c2C(=O)[C@H]1O[C@H]1C[C@@H](O[C@H]2C[C@@H](O[C@H]3C[C@](C)(O)[C@H](O)[C@@H](C)O3)[C@@H](O)[C@@H](C)O2)[C@H](O)[C@@H](C)O1 [PLICAMYCIN] | 4 days | 24 | 6 | 0 | 0 | 0 | 1 | 0 | 0 | yes | 100% | 0% | Dose-dependant | 6 | 0 | 3 | 0 | –
